Values quoted from earlier work, collected in patent US20240408079A1, “COMPOSITIONS AND METHODS FOR THE TREATMENT OF CANCER” (THE TRANSLATIONAL GENOMICS RESEARCH INSTITUTE, priority 2021, published 2024).

Columns and labels:
EWS-FLI = settings: preclinical studies
ES cell lines = settings: multiple ES cell lines
[1] = preclinical studies, in vivo

Molecule | transcriptional profiles driven by EWS-FLI (EWS-FLI) | tumorigenesis in vitro (EWS-FLI) | tissue culture cell viability (ES cell lines) | antitumoral activity [1]
C/C(=N\NC(=O)c1cccc(S(=O)(=O)N2CCOCC2)c1)c1cc(Cl)ccc1O [SP-2509] | reverse the transcriptional profiles | significantly delay tumorigenesis |  | 
Seclidemstat [SP-2577] | reverse the transcriptional profiles | significantly delay tumorigenesis | ability to impair tissue culture cell viability | little antitumoral activity in vivo
